Assay results published in patent EP3219306B1, “COMPOSITION COMPRISING CITICOLINE AND HOMOTAURINE FOR PREVENTING AND TREATING NEUODEGENERATIVE DISEASES AND COGNITIVE DISORDERS” (NEURAXPHARM ITALY S.P.A., priority 2016, dated 2017).
Entries after “also recorded” stand apart in the source; their conditions may differ.

Tests used:
[1] = tested on: retinal cells; conditions: for cytotoxicity (cell death) on the cell cultures: 1, 10, 100 µM for 24 h; for toxicity to retinal cells (MTT): 1, 10 or 100 µM
Experimental: (§1) The MTT assay was used to measure the viability of both neuronal and retina cells. The cells were prepared in a 96-well plate in DMEM-F12 with 7% FBS. After cultured in DMEM-F12 without serum for 12 h, Ab25-35 ([…]) or glucose oxidase (GOX) alone or in combination with homotaurine (Hom), citicoline (CITC) or Hom + CITC were added to the medium. Twenty-four hours later, the cells were incubated with […] MTT (Roche, 0.5 mg/ml) at 37 °C for 4 hours, then the crystals were dissolved in […] DMSO. Absorbance at 570 nm was measured with a spectrophotometer (TECAN Infinite M200, Switzerland).

[2] = Bioavailability of [methyl-14C]-labelled citicoline by oral and venous route, radioactivity in plasma; format: in vivo, experimental animal models
Description: In experimental animal models, the applicant compared the bioavailability by oral and venous route of citicoline, labeling it with a radioactive label -[methyl-14C].

[3] = Water solubility; format: physicochemical
[4] = target: Aβ42 (Homo sapiens, UniProt P05067); conditions: 8-week treatment, 30 or 100 mg/kg/day; cited from earlier work
Aβ42, sequence (P05067 672-713 limits assumed, species assumed): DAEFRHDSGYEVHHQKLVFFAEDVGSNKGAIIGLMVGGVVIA

[5] = target: Aβ40 (Homo sapiens, UniProt P05067); conditions: 8-week treatment, 30 or 100 mg/kg/day; cited from earlier work
Aβ40, sequence (P05067 672-711 limits assumed, species assumed): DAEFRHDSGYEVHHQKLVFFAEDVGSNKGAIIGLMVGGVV

[6] = Randomized double-blind, placebo-controlled trial in subjects with medium to moderate Alzheimer's disease; format: in vivo, human; conditions: 50, 100, 150 mg homotaurine in combination with 500, 750 and 1000 mg sodium citicoline
Experimental: Studies to evaluate the pharmacokinetic-pharmacodynamic effect of compositions for use of the invention have provided positive indications about the activity. In particular, in a randomized double-blind, placebo-controlled trial in which 58 subjects with from medium to moderate Alzheimer's disease were administered 50, 100, 150 mg of homotaurine in combination with 500, 750 and 1000 mg of sodium citicoline.

[7] = tested on: human retina pigment epithelium (ARPE-19); experiment: MTT assay, cell viability of retina cells against cytotoxicity induced by glucose oxidase (GOX); format: cell-based; conditions: cytotoxicity induced by GOX 50 mU/ml; 1 µM; n = 5
Experimental: as §1

[8] = 50 mg per day, individuals with an average decline of cognitive functions; cited from earlier work

SMILES: C[N+](C)(C)CCOP(=O)(O)OP(=O)([O-])OC[C@H]1O[C@@H](n2ccc(N)nc2=O)[C@H](O)[C@@H]1O [citicoline, 2-[{[5-(4-amino-2-oxopyrimidin-1-yl)-3,4-dihydroxyoxolan-2-yl]methoxy-hydroxyphosphoryl}oxy-hydroxyphosphoryl]oxyethyl-thrimethylazanium]
- cytotoxicity (cell death) on the cell cultures [1]: None of the concentrations induced cell death; also recorded: substantial absence of cytotoxicity
- toxicity to retinal cells (MTT) [1]: no evidence of selective toxicity
- bioavailability ([2]; oral administration): greater than 90%
- equivalence of the two alternative administration routes (percentage of radioactivity in plasma over time) ([2]; oral vs venous route, [methyl-14C] label): about 90%
- water solubility [3]: high

SMILES: NCCCS(=O)(=O)O [homotaurine, 3-amino-1-propanesulfonic acid]
- plasma level of Aβ42 [4]: able to reduce
- plasma level of Aβ40 [5]: able to reduce
- crossing of the blood-brain barrier [6]: crossed the blood-brain barrier
- cytotoxicity (cell death) on the cell cultures [1]: None of the concentrations induced cell death; also recorded: substantial absence of cytotoxicity
- toxicity to retinal cells (MTT) [1]: no evidence of selective toxicity
- cell viability (MTT) [7]: able to improve the cell viability
- effect on atrophy of the hippocampus [8]: positive effect
- effect on episodic memory loss [8]: positive effect

SMILES: C[N+](C)(C)CCOP(=O)([O-])OP(=O)([O-])OC[C@H]1O[C@@H](n2ccc(N)nc2=O)[C@H](O)[C@@H]1O.[Na+] [sodium citicoline]
- crossing of the blood-brain barrier [6]: crossed the blood-brain barrier
